Test results as given in paper PMC7358525, “Characterization of PF-6142, a Novel, Non-Catecholamine Dopamine Receptor D1 Agonist, in Murine and Nonhuman Primate Models of Dopaminergic Activation” (Frontiers in Pharmacology, 2020).

Legend:
[1] = Plasma exposure (PK), NHP; type: in vivo; conditions: 0.1 mg/kg SC, 0.5 h
Procedure: Across the set of experiments, PK was either collected from satellite animals or in separate, dedicated studies. In addition to plasma PK, exposures were obtained in brain tissue for rat and mouse, and plasma protein binding and brain tissue binding were measured. Using the measured exposures, partitioning, and binding parameters, and the […]

[2] = PK, brain exposure and plasma/brain tissue binding studies; type: in vivo; conditions: data not presented
Procedure: Across the set of experiments, PK was either collected from satellite animals or in separate, dedicated studies. In addition to plasma PK, exposures were obtained in brain tissue for rat and mouse, and plasma protein binding and brain tissue binding were measured. Using the measured exposures, partitioning, and binding parameters, and the
Exposures increased in a generally dose proportional manner across most of the doses used in the pharmacology studies, and inter animal variability was typically low. Exposures were obtained in brain tissues for rat and mouse, and plasma protein binding and brain tissue binding were measured.

[3] = tested on: EEG oscillation power; test: Rat quantitative electroencephalography, freely moving; type: in vivo; conditions: first 4 h
Text: Model 4ET telemetry device components (Data Sciences International, St Paul, MN, USA) were bilaterally placed in subcutaneous pockets on the dorsal flank of adult male Sprague-Dawley rats (200–400 grams). Two pairs of leads were implanted superficially to burr holes drilled over the frontal cortex (stainless steel screws, Plastics One, Roanoke, VA at coordinates: A-P = +1.5 mm, M-L = 1.5 mm) and parietal cortex (coordinates: A-P = −3.7 mm, M-L = −2.2 mm), and the cerebellum bilaterally to be used as ground and reference for electroencephalographic (EEG) recordings. A stainless-steel wire (Plastics One, Roanoke, VA) was implanted into the neck muscle to monitor electromyogram (EMG). All recordings were performed inside the home cages of animals using RPC-2 telemetry receivers (Data Sciences International, St. Paul, MN) at a sampling rate of 500 Hz for data acquisition. Baseline data, while on vehicle, were obtained for 24 h prior to compound administration. PF-6142 (1.0 or 5.6 mg/kg, s.c.) was administered acutely following the baseline day.
Raw EEG traces were analyzed using custom scripts in MATLAB (The Mathworks, Natick, MA, version 7.8 (R2009a)) to evaluate spectral changes between treatment groups. Raw EEG data were read into the MATLAB software, segmented to match that of the polysomnography (PSG) data (see below) and fast Fourier transforms (FFTs) were performed. Only data collected on the parietal lead were the subject of statistical analyses. PSG analysis was applied to all EEG/EMG data and utilized an in-house algorithm developed in LabView (National Instruments, Austin TX) as previously described ([Harvey et al., 2013]).
Relative power data in each band aggregated over 2 h-long time bins, while on drug, were normalized to baseline levels in corresponding time bins relative to dosing. For statistical analysis the R software was used. The effects of two within factors, dose and time, on cumulative time spent in three stages, awake, REM, and NREM sleep were assessed using generalized linear mixed model. The model specification explicitly accounted for a crossover design with repeated measures by introducing auxiliary factors, day, treatment sequence, and day by time product. To account for correlations within subjects, we employed a first order autoregressive scheme, which assumes that correlations decay exponentially with the lag between the measurements. The model was fitted using the method of restricted maximum likelihood. Significant findings were followed by least significant difference tests for pairwise differences across doses and across doses at fixed times for treatment and treatment by time factors, respectively. Tukey-Kramer procedure was used to adjust for multiple hypothesis testing. For all statistical tests, p < 0.05 was considered significant. The same fixed factors and type of statistical model were used to explain cumulative power within EEG power bands; the power was log transformed before the analysis.

[4] = tested on: ketamine-induced working memory deficits; test: Spatial delayed response (SDR) task in the nonhuman primate; type: in vivo, rhesus monkeys
Text: This study was designed to test the hypothesis that PF-6142 would provide significant protection versus the ketamine-induced working memory deficits in nonhuman primates.
Rhesus monkeys were trained to stability on a variable SDR task in a sound-attenuated Wisconsin General Testing Apparatus ([Roberts et al., 2010]). Briefly, subjects observe while the investigator baiting one of two to seven wells with a highly preferred food reward and then covers all the wells with identical square plaques. An opaque screen is then lowered for one of five variable delays, which are pseudorandomized across trials within a session. Thus, delays are defined as 0–4 N, where “N” is a value that is animal dependent and ranges from 1 to 10 s depending upon the difficulty level of the task at which an animal reaches the criterion of stable performance. At the end of the delay period, the opaque screen is raised, and the animal must select the well that had been baited to obtain a reward. Each test session consists of 20 trials wherein both the baited well and delay length are pseudorandomized across trials. Before study initiation, all subjects were required to reach stability over a period of 10 consecutive test sessions, where stability was defined as an average of 65–75% correct. Stability was attained by varying the number of wells and the delay value for each animal. Subjects were originally trained on a two-well board with an N value of 1. […] Once stability was attained for a given number of wells and N value, that combination was kept constant throughout the course of the study ([Roberts et al., 2010]). The range of stable performance for the 10 subjects was two to five wells and an N value of 1–7 s (median, four-well testing board, N = 5 s). Data were transformed using logarithmic function [log(x+5)] to improve normality and analyzed using ANOVA.
Subjects received pretreatment with vehicle (sterile saline solution) or PF-6142 (0.0015, 0.015, 0.15 mg/kg, s.c.) 4 h before cognitive testing. They then received an intramuscular injection of either vehicle (sterile saline) or ketamine (0.7–1.7 mg/kg; Fort Dodge Co.) 0.25 h before cognitive testing. […] Thus, for the present study, one monkey received 0.7 mg/kg, seven monkeys received 1.0 mg/kg, and two monkeys received 1.7 mg/kg of ketamine. The vehicle/PF-6142 and vehicle/ketamine treatments were assigned using a randomized Latin square design with a total of eight conditions. Except for the vehicle/vehicle condition, there was a minimum 2-week washout period between all acute challenges during which time animals were required to “restabilize” to baseline performance levels, which was defined as at least three consecutive testing sessions wherein cognitive performance ranged between 65% and 75% correct.

[5] = significant only at 5.6 mg/kg s.c.

Cc1cc(Oc2nccc3occc23)ccc1-c1c(C)ncc2nccn12 [PF-6142]
PF-6142 plasma concentration [1]: 31 ng/mL
brain penetration ([2]; brain tissues of rat and mouse): fully brain penetrant
unbound concentrations between the brain and plasma compartments ([2]; rat and mouse): approaching unity
delta oscillation power vs vehicle ([3]; 5.6 mg/kg s.c.): significant delta power decrease
power in other studied frequency bands (theta, alpha) ([3]; 1.0 and 5.6 mg/kg s.c.): not found to change significantly
beta oscillation power [3, 5]: significant increase
gamma oscillation power [3, 5]: significant increase
total power in the EEG signal [3, 5]: decreased significantly
percent correct on the SDR task after pretreatment + ketamine (range over doses) ([4]; PF-6142 0.0015-0.15 mg/kg s.c. 4 h before testing): 42.5–52.1%
improvement of performance vs ketamine ([4]; PF-6142 0.0015-0.15 mg/kg s.c., all doses): more than 10 % correct
working memory performance under normal conditions (pretreatment followed by placebo) ([4]; PF-6142 without ketamine): no effect on its own
